Test results taken from patent US5461057A, “Hydro-ethano-indeno-pyridines” (priority 1994, dated 1995).

Experiments:
[1] = system: LOX human melanoma cell adhesion to murine laminin; assay: LOX cell adhesion to laminin; assay type: cell-based; details: read-out: Laminin IC50
Description: Adhesion assays were run essentially as described previously (Pai et al., J. Biomed. Res. 2: 53, 1992). 96-well plates were coated with human fibronectin (140 ng/well), human vitronectin (75 ng/well), human collagen I (100 ng/well), human collagen IV (100 ng/well), human fibrinogen (1 μg/well), murine laminin (600 ng/well), or polylysine, and incubated overnight in a humidified 37° C. incubator. Excess fibronectin or other substrate was then removed and 0.2 ml of 2 mg/ml bovine serum albumin (BSA)in Dulbecco's phosphate-buffered saline (DPBS) was added to each well, incubated for 2 hours at 37° C., and removed. LOX human melanoma cells, M27 murine lung carcinoma cells or B16F10 mouse melanoma cells were detached from tissue culture flasks with RPMI medium containing 0.2M urea and 10 mM EDTA, and 0.18 ml of cells were added to each well to a final cell concentration of 1×10^5 cells/well. For inhibition studies 20 μl of 10× compound was added to the wells prior to cell addition. Cells were allowed to adhere for 1 hour at 37° C. The wells were then gently washed twice with 0.2 ml DPBS. The fluorescent dye calcein AM (Molecular Probes, Eugene Oreg.) in DPBS (0.1 ml of 1 μM) was added to each well, and the plates were incubated for 1 hour at room temperature. Adherent cells were quantitated by reading the fluorescence on a Cytofluor 2300 fluorescent plate reader (Millipore) at 485 nm excitation and 530 nm emission.

[2] = system: histamine-induced dyspnea; assay: Bronchodilator (in vivo) Guinea Pig Dyspnea; details: oral, one hour before histamine challenge
Method in brief: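 Fasted, unanesthetized guinea pigs (250-350 g) received the test drug orally one hour before exposure to an aerosolized 0.1% histamine solution. Onset of dyspnea was recorded, and data were expressed as number tested over number survived.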

ICAM-1 = target: T1, ICAM-1 (Homo sapiens, UniProt P05362); assay: HL-60 cell adhesion to recombinant soluble ICAM-1; assay type: cell-based; details: HL-60 cells
T1 construct: recombinant soluble ICAM-1 (2 μg/well)
Description: For measurement of cell adhesion to ICAM-1, HL-60 human leukemia cells were induced to differentiate in the presence of DMSO for 6 days. Adhesion of DMSO-differentiated HL-60 cells to recombinant soluble ICAM-1 (2 μg/well) was measured as described above for LOX cell adhesion, except that the adhesion was allowed to proceed for 30 minutes, rather than 1 hour, at 37° C.
ICAM-1 is a cell surface adhesion molecule that participates in cell-cell adhesion interactions, rather than cell-matrix adhesion interactions.

ELAM-1 = ELAM-1 (Homo sapiens, UniProt P16581); assay: cell-based
Description: Cell adhesion to ELAM-1 was measured essentially as described previously (Pal et al., J. Biomed. Res. 2: 53, 1992). Undifferentiated HL-60 leukemia cells were prelabelled for 30 minutes with 1 μM calcein AM in DPBS without calcium or magnesium, and the cells were washed twice with the same medium before addition to 96-well plates containing monolayers of mouse L cells (5×10^4 cells/well) transfected with cDNA for the adhesion molecule ELAM-1. Adhesion was allowed to proceed for 30 minutes at room temperature before washing and quantitation of the remaining fluorescent HL-60 cells as described above.
ELAM-1 (E-selectin) is a member of the selectin class of adhesion molecules.

PDGF receptor = PDGF receptor binding assay
TBZ-induced ptosis = assay: Effects on tetrabenazine (TBZ)-induced ptosis in mice; assay type: in vivo, mouse; details: Mus musculus, po
Method in brief: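 Mice dosed p.o. with test compound and challenged with tetrabenazine; blockade of TBZ-induced ptosis scored per the cited Nodine and Moyer procedure. Values are ED50 in mg/kg.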

metrazole = assay: Anti-metrazole test in mice; assay type: in vivo, mouse; details: Mus musculus, read-out: MTZ ED50
Description: The anti-metrazole test in mice was carried out as described in Everett et al, J. Pharmacol. Exp. Therap. 81:402-407 (1944); which is hereby incorporated by reference.
The results for this test are given below as ED50's in the units of mg/kg.

[3] = system: B16-F10 murine melanoma metastasis; assay: In vivo experimental metastasis; parameters: species or system mouse (C57/black6); details: 150 mpk i.p.
Description: C57/black6 female mice (6-7 weeks old) were randomized before any treatment into groups of 5 mice per treatment. Compounds of the invention were prepared as a fine suspension in 25% β-cyclodextran and administered i.p. in a volume of 0.2 ml per animal. Two hours after drug (or vehicle) injection, 0.2 ml of DPBS containing 1×10^5 B-16 F10 murine melanoma cells were injected i.v. into the tail vein. After 14 days, animals were sacrificed and lungs were removed. Metastatic lung colonies were counted by visual inspection.
*Pretreatment Time is the time between i.p. drug injection and i.v. tumor

Sequence of ELAM-1 (P16581 22-610): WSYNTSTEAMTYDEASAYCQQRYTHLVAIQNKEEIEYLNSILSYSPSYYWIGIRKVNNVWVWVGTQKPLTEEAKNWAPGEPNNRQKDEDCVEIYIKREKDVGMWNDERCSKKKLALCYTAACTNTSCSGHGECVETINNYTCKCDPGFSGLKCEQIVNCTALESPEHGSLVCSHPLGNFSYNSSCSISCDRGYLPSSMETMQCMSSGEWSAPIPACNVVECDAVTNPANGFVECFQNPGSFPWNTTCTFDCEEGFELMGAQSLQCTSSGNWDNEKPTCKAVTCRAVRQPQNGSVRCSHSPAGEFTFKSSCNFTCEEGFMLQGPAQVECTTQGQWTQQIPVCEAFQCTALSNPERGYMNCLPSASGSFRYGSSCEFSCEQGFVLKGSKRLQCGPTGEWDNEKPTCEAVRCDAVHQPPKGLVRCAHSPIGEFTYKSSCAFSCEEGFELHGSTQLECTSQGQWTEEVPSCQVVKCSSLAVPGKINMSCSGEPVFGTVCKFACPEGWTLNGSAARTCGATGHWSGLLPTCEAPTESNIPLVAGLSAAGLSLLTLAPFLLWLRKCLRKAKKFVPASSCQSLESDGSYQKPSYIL
T1 sequence (P05362 28-480 limits assumed): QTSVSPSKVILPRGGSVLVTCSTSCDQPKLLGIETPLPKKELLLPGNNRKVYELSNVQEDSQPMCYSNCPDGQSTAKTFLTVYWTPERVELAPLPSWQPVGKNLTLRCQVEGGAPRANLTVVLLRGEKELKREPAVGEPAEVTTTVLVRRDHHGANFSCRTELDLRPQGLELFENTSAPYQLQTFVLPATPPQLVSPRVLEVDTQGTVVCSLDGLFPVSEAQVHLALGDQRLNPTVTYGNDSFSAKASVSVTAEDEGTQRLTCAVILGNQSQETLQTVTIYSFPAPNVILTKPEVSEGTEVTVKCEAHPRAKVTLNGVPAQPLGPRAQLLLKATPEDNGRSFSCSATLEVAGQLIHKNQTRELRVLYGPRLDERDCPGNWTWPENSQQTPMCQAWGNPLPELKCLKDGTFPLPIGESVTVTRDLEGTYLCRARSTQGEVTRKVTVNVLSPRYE

SMILES | IC50 [1] [µM] | DYSP survivors ([2]; 100 mg/kg) | IC50 (ICAM-1) [µM] | IC50 (ELAM-1) [µM] | inhibition of PDGF binding (PDGF receptor) | ED50 (TBZ-induced ptosis) [mg/kg] | ED50 (metrazole) [mg/kg] | responders at 100 mg/kg ([2]; Cavia porcellus, 1 h, 100 mg/kg, read-out: DYSP survivors (converted)) [%] | inhibition of in vivo metastasis relative to vehicle control ([3]; 2 hours before i.v. injection of melanoma) [%] | % Inhibition of lung metastasis ([3]; pretreatment time 30 min) [%] | Number of Lung Melanoma Colonies ([3]; pretreatment time 30 min) | % Inhibition of lung metastasis ([3]; pretreatment time 120 min) [%] | Number of Lung Melanoma Colonies ([3]; pretreatment time 120 min) | DYSP survivors ([2]; 10 mg/kg) | DYSP survivors ([2]; 50 mg/kg)
CN1C2CCC1C1C(=C(c3ccc(Cl)cc3)c3ccccc31)C2 (stereo not shown) [C] | 3.5 | 0/3 | 24.8 | > 50 |  |  |  |  |  |  |  |  |  |  | 
COc1ccc(C2=C3CC4CCC(N4)C3c3ccccc32)cc1 (stereo not shown) [Compound B] | 7.7 |  | > 50 | > 50 | not to inhibit PDGF binding directly | 12 | > 30 | 0 | 73 | 55.7 | 35.2 ± 13.9 | 72.5 | 21.8 ± 2.0 |  | 
Cc1ccc(C2=C3CC4CCC(C3c3ccccc32)N4C)cc1 (stereo not shown) [J] | 2.5 | 3/3 | > 50 | > 50 |  |  |  |  |  |  |  |  |  | 0/3 | 1/3
